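Briefly, cells in 96-well plates were exposed to five compound concentrations for 48 h, and endpoints were estimated by linear interpolation. GI50 is the concentration that inhibits growth by half.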 Calls of active or inactive are those of the source. No stated cut-off is given here; in the data, active = GI50 up to about 1.1 µM and inactive = higher. Non-standard residues stand in square brackets, D forms with d. Residues, ends and D or L forms follow the SMILES beside them. *: point of attachment. Ac5c = NC1(C(=O)O)CCCC1; Boc = CC(C)(C)OC(=O)*; tBu = CC(C)(C)*
Columns and labels:
Assay in all cases: growth of human tumour cells (NCI), 48 h
COLO 205 = system: COLO 205
DU-145 = system: DU-145
HL-60 = system: HL-60
HT-29 = system: HT-29
K562 = system: K562
KM12 = system: KM12
MCF7 = system: MCF7
MDA-N = system: MDA-N
NCI-H23 = system: NCI-H23
NCI-H460 = system: NCI-H460
NCI-H522 = system: NCI-H522
OVCAR-3 = system: OVCAR-3
RPMI-8226 = system: RPMI-8226
RXF 393 = system: RXF 393
SF-268 = system: SF-268
SK-MEL-5 = system: SK-MEL-5
SN12C = system: SN12C
SNB-19 = system: SNB-19
U-251 = system: U-251
SF-539 = system: SF-539

| SMILES | GI50 (COLO 205) | GI50 (DU-145) | GI50 (HL-60) | GI50 (HT-29) | GI50 (K562) | GI50 (KM12) | GI50 (MCF7) | GI50 (MDA-N) | GI50 (NCI-H23) | GI50 (NCI-H460) | GI50 (NCI-H522) | GI50 (OVCAR-3) | GI50 (RPMI-8226) | GI50 (RXF 393) | GI50 (SF-268) | GI50 (SK-MEL-5) | GI50 (SN12C) | GI50 (SNB-19) | GI50 (U-251) | GI50 (SF-539) |
| --- | --- | --- | --- | --- | --- | --- | --- | --- | --- | --- | --- | --- | --- | --- | --- | --- | --- | --- | --- | --- |
| O=C1CCC(c2ccccc2)(c2ccccc2)CC1 | 27.9 µM (inactive) | > 100 µM (inactive) | 33.5 µM (inactive) | 55.5 µM (inactive) | 29.7 µM (inactive) | > 100 µM (inactive) | 46 µM (inactive) | 45.6 µM (inactive) | 57.7 µM (inactive) | > 100 µM (inactive) | 71.3 µM (inactive) | > 100 µM (inactive) | 30.7 µM (inactive) | > 100 µM (inactive) | > 100 µM (inactive) | 30.7 µM (inactive) | 38.1 µM (inactive) | > 100 µM (inactive) | > 100 µM (inactive) |  |
| CCCCCCCCCCCCCCCC(=O)OCC(O)C1OC(=O)C(O)=C1O (configuration not stated) | > 100 µM (inactive) | > 100 µM (inactive) | 29.5 µM (inactive) | 12.8 µM (inactive) | 27.8 µM (inactive) | 23.4 µM (inactive) | < 0.01 µM (active) | 30.8 µM (inactive) | 3.21 µM (inactive) | > 100 µM (inactive) | 34.4 µM (inactive) | > 100 µM (inactive) |  | 36.7 µM (inactive) | 26.4 µM (inactive) | > 100 µM (inactive) | 29.9 µM (inactive) | 30.1 µM (inactive) | 28.1 µM (inactive) | 27.4 µM (inactive) |
| COC1CC(COCc2ccccc2)CC(OC)O1 (configuration not stated) | > 100 µM (inactive) | > 100 µM (inactive) | < 0.01 µM (active) | > 100 µM (inactive) | > 100 µM (inactive) | > 100 µM (inactive) | > 100 µM (inactive) | > 100 µM (inactive) | > 100 µM (inactive) | > 100 µM (inactive) | > 100 µM (inactive) | > 100 µM (inactive) | > 100 µM (inactive) | > 100 µM (inactive) | > 100 µM (inactive) | > 100 µM (inactive) | > 100 µM (inactive) |  |  | > 100 µM (inactive) |
| COc1ccc(/N=N/C(=N\c2ccc(Cl)cc2)c2ccc(N(CCC#N)CCC#N)cc2)cc1 | 5.19 µM (inactive) | 20 µM (inactive) |  | > 100 µM (inactive) | 26.4 µM (inactive) | 15.6 µM (inactive) | 8.05 µM (inactive) | 37.4 µM (inactive) | 40.9 µM (inactive) | 10.1 µM (inactive) | 17.4 µM (inactive) | 23.9 µM (inactive) | 34.5 µM (inactive) | 12.7 µM (inactive) | 41.3 µM (inactive) | 0.755 µM (active) | > 100 µM (inactive) | > 100 µM (inactive) | 41.4 µM (inactive) | > 100 µM (inactive) |
| O=C1CN(C(=O)C2CCCN2C(=O)C2CCCN2)C(=O)CN1 (configuration not stated) | > 100 µM (inactive) | > 100 µM (inactive) | > 100 µM (inactive) | > 100 µM (inactive) | > 100 µM (inactive) | > 100 µM (inactive) | > 100 µM (inactive) | > 100 µM (inactive) | > 100 µM (inactive) | > 100 µM (inactive) | > 100 µM (inactive) | > 100 µM (inactive) | > 100 µM (inactive) | > 100 µM (inactive) | > 100 µM (inactive) | > 100 µM (inactive) | > 100 µM (inactive) | > 100 µM (inactive) | > 100 µM (inactive) |  |
| Cc1nc2c(Cl)cc(Cl)cc2c2c1CCO2 | > 100 µM (inactive) | > 100 µM (inactive) | 65.3 µM (inactive) | > 100 µM (inactive) | > 100 µM (inactive) | > 100 µM (inactive) | > 100 µM (inactive) | > 100 µM (inactive) | > 100 µM (inactive) | > 100 µM (inactive) | > 100 µM (inactive) |  | > 100 µM (inactive) | 87.3 µM (inactive) | > 100 µM (inactive) | > 100 µM (inactive) | > 100 µM (inactive) | > 100 µM (inactive) | > 100 µM (inactive) | > 100 µM (inactive) |
| COc1ccc2[nH]cc(CN3CCC(CO)(c4ccccc4)CC3)c2c1 | 18.3 µM (inactive) | 45.2 µM (inactive) | 18.7 µM (inactive) | 23.1 µM (inactive) | 17.6 µM (inactive) | 17.9 µM (inactive) | 20.8 µM (inactive) | 18.7 µM (inactive) | 91.6 µM (inactive) | 30 µM (inactive) | 18.9 µM (inactive) | 48.2 µM (inactive) | 22.6 µM (inactive) | 71.4 µM (inactive) | 11.9 µM (inactive) | 14.1 µM (inactive) | 72.8 µM (inactive) | > 100 µM (inactive) | 30.3 µM (inactive) |  |
| O=C(NC1(c2cc3ccccc3s2)CCCCC1)C1CCC1 | > 100 µM (inactive) | > 100 µM (inactive) | > 100 µM (inactive) | > 100 µM (inactive) | > 100 µM (inactive) | > 100 µM (inactive) | > 100 µM (inactive) | > 100 µM (inactive) | > 100 µM (inactive) | > 100 µM (inactive) | > 100 µM (inactive) | > 100 µM (inactive) | > 100 µM (inactive) | > 100 µM (inactive) |  | > 100 µM (inactive) | > 100 µM (inactive) | > 100 µM (inactive) | > 100 µM (inactive) | 23.1 µM (inactive) |
| CC(C)C(C/C=C1\CC(CO)(COC(=O)C2CCCCC2)OC1=O)C(C)C (configuration not stated) | 10.3 µM (inactive) | 12.3 µM (inactive) |  | 30.6 µM (inactive) | 6.25 µM (inactive) | 18.4 µM (inactive) | 21.2 µM (inactive) | 24.1 µM (inactive) | 20.6 µM (inactive) | 24.4 µM (inactive) | 16.5 µM (inactive) | 20 µM (inactive) |  | 19.1 µM (inactive) | 17.7 µM (inactive) | 31.6 µM (inactive) | 16.7 µM (inactive) | 16.3 µM (inactive) | 19 µM (inactive) | 20.3 µM (inactive) |
| CC(OC(C)(C)C)C(NC(=O)C(CCCCNC(=O)OC(C)(C)C)NC(=O)C(Cc1c[nH]c2ccccc12)NC(=O)C(N)Cc1ccccc1)C(=O)NC(Cc1ccccc1)C(=O)NC1(C(=O)O)CCCC1 (configuration not stated) (H-FWK(Boc)T(tBu)F[Ac5c]-OH; configuration not given here) | > 100 µM (inactive) | > 100 µM (inactive) |  | > 100 µM (inactive) | > 100 µM (inactive) | > 100 µM (inactive) | > 100 µM (inactive) | > 100 µM (inactive) | > 100 µM (inactive) | > 100 µM (inactive) | > 100 µM (inactive) | > 100 µM (inactive) | > 100 µM (inactive) | > 100 µM (inactive) | > 100 µM (inactive) | > 100 µM (inactive) | > 100 µM (inactive) | > 100 µM (inactive) | > 100 µM (inactive) | > 100 µM (inactive) |
| c1ccc(CSSSCc2ccccc2)cc1 [DIBENZYL TRISULFIDE] | 1.87 µM (inactive) | 1.12 µM (active) | 0.378 µM (active) | 1 µM (active) | 0.127 µM (active) | 2.67 µM (inactive) | 0.385 µM (active) | 1.25 µM (inactive) | 2.4 µM (inactive) | 1.7 µM (inactive) | 0.363 µM (active) | 0.423 µM (active) | 0.313 µM (active) | 1.72 µM (inactive) | 3.57 µM (inactive) | 1.88 µM (inactive) | 0.912 µM (active) | 15.3 µM (inactive) | 2.01 µM (inactive) |  |

From ChEMBL document CHEMBL1201862, “PubChem BioAssay data set” (2004)
